Results taken from the NIST ThermoML archive (doi:10.1021/je060271a).
± gives the expanded uncertainty stated by the source.

Details: 283.16 K, Liquid, Vibrating tube method

Measured: mass density

CCCC(=O)OCC(COC(=O)CCC)(COC(=O)CCC)COC(=O)CCC [pentaerythritol tetrabutyrate]
1069.2 ± 1.3 kg/m3: 17568 kPa | 17577 kPa | 17586 kPa | 17607 kPa | 17628 kPa | 17637 kPa | 17668 kPa | 17687 kPa | 17708 kPa | 17717 kPa | 17820 kPa
1069.6 ± 1.3 kg/m3: 18219 kPa | 18231 kPa | 18361 kPa | 18404 kPa | 18436 kPa | 18449 kPa | 18459 kPa | 18480 kPa | 18559 kPa | 18569 kPa | 18627 kPa
1069.5 ± 1.3 kg/m3: 17976 kPa | 18017 kPa | 18039 kPa | 18081 kPa | 18199 kPa | 18209 kPa | 18254 kPa | 18286 kPa | 18381 kPa | 18426 kPa
1070.2 ± 1.3 kg/m3: 19310 kPa | 19335 kPa | 19408 kPa | 19444 kPa | 19482 kPa | 19493 kPa | 19530 kPa | 19544 kPa | 19593 kPa
1069.7 ± 1.3 kg/m3: 18371 kPa | 18394 kPa | 18414 kPa | 18469 kPa | 18492 kPa | 18502 kPa | 18513 kPa | 18525 kPa | 18536 kPa | 18548 kPa | 18592 kPa | 18614 kPa | 18637 kPa | 18658 kPa | 18669 kPa | 18692 kPa | 18716 kPa | 18761 kPa | 18772 kPa
1069.4 ± 1.3 kg/m3: 17800 kPa | 17903 kPa | 17922 kPa | 17935 kPa | 17944 kPa | 17966 kPa | 17986 kPa | 17997 kPa | 18007 kPa | 18029 kPa | 18061 kPa | 18071 kPa | 18157 kPa | 18188 kPa | 18241 kPa
1070 ± 1.3 kg/m3: 19026 kPa | 19039 kPa | 19050 kPa | 19062 kPa | 19073 kPa | 19097 kPa | 19168 kPa | 19190 kPa | 19204 kPa | 19299 kPa
1070.1 ± 1.3 kg/m3: 19108 kPa | 19119 kPa | 19132 kPa | 19179 kPa | 19215 kPa | 19226 kPa | 19240 kPa | 19251 kPa | 19262 kPa | 19274 kPa | 19287 kPa | 19323 kPa | 19507 kPa | 19518 kPa | 19556 kPa
1069.9 ± 1.3 kg/m3: 18817 kPa | 18830 kPa | 18841 kPa | 18875 kPa | 18886 kPa | 18910 kPa | 18921 kPa | 18934 kPa | 18945 kPa | 19002 kPa | 19015 kPa | 19084 kPa | 19154 kPa
1069.3 ± 1.3 kg/m3: 17678 kPa | 17698 kPa | 17790 kPa | 17810 kPa | 17831 kPa | 17841 kPa | 17850 kPa | 17862 kPa | 17872 kPa | 17882 kPa | 17892 kPa | 17913 kPa | 17954 kPa | 18049 kPa
1069.1 ± 1.3 kg/m3: 17598 kPa | 17618 kPa | 17646 kPa | 17658 kPa
1070.3 ± 1.3 kg/m3: 19568 kPa | 19579 kPa | 19605 kPa
1069.8 ± 1.3 kg/m3: 18579 kPa | 18603 kPa | 18648 kPa | 18682 kPa | 18703 kPa | 18726 kPa | 18737 kPa | 18750 kPa | 18783 kPa | 18794 kPa | 18806 kPa | 18851 kPa
